Measurements as given in patent US20100249116A1 (priority 2007, published 2010).
Like-named read-outs stand apart in the source and are kept apart here.

Legend:
[1] = tested on: acute intoxication of male Wistar rats with ethylene glycol (EG); settings: rat, in vivo
in vivo = settings: male, Wistar, rat, sc

Structure (SMILES) | LD50 (toxicity parameter of EG) ([1]; male, Wistar, sc) [mg/kg] | K - Coefficient of efficiency (ratio of LD50 for treated animals to LD50 for non-treated animals) [1] | KG - Coefficient of guaranteed defense (ratio of LD10 for treated animals to LD90 for non-treated animals) [1] | LD10 (toxicity parameter of EG) ([1]; sc) [mg/kg] | LD16 (toxicity parameter of EG) ([1]; sc) [mg/kg] | LD84 (toxicity parameter of EG) ([1]; sc) [mg/kg] | LD90 (toxicity parameter of EG) ([1]; sc) [mg/kg] | LD50 (in vivo) [mg/kg] | LD10 (toxicity parameter of EG) ([1]; male, Wistar, sc) [mg/kg] | LD16 (toxicity parameter of EG) ([1]; male, Wistar, sc) [mg/kg] | LD84 (toxicity parameter of EG) ([1]; male, Wistar, sc) [mg/kg] | LD90 (toxicity parameter of EG) ([1]; male, Wistar, sc) [mg/kg]
Cc1cn[nH]c1 [4MP, 4-methylpyrazole] | 13000 | 3.71 | 2.04 | 10600 | 11000 | 15200 | 16100 |  |  |  |  | 
OCCO [EG, Ethylene Glycol] |  |  |  |  |  |  |  | 3500 | 2220 | 2490 | 4530 | 5200
